The source of these data is US8952157B2, “Apoptosis-inducing agents for the treatment of cancer and immune and autoimmune diseases” (AbbVie Inc., priority 2008, dated 2015).

The experiment concerns the target GST-Bcl-2 (Homo sapiens (Human), UniProt P10415). The experiment in a line: Time Resolved-Fluorescence Resonance Energy Transfer (TR-FRET) Bcl-2 binding assay. The method, boiled down: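 Ki values derived from TR-FRET displacement of F-Bak peptide from GST-Bcl-2, detected with Tb-labelled anti-GST antibody (ex 340, em 520/495 nm). Compound dilution series started at 50 μM (2× starting concentration); room-temperature incubation 3 hours.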
(TR-FRET usually uses a lanthanide donor and a delayed reading to cut background.)

Where [1] appears, read: GST-Bcl-2 1 nM, F-Bak peptide probe 100 nM, Tb-anti-GST antibody 1 nM, Ki by Wang's equation.

Molecules are shown by their SMILES. Where two headings read alike, the source gives them in different places. Bounds are passed on as bounds.

Chain of GST-Bcl-2 (P10415 whole entry): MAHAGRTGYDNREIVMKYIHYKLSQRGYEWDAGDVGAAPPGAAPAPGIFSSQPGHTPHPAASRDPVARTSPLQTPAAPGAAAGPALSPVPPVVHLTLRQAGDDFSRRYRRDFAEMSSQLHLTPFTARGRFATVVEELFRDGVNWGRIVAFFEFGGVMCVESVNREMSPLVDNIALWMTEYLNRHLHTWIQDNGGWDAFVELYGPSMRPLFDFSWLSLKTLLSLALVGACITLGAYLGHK

Consider `CN(C)CCCNc1ccc(S(=O)(=O)NC(=O)c2ccc(N3CCN(Cc4ccccc4-c4ccc(Cl)cc4)CC3)cc2Oc2cccc3c2CCC(=O)N3)cc1[N+](=O)[O-]` [Example 58, 4-(4-((4′-chloro-1,1′-biphenyl-2-yl)methyl)piperazin-1-yl)-N-((4-((3-(dimethylamino)propyl)amino)-3-nitrophenyl)sulfonyl)-2-((2-oxo-1,2,3,4-tetrahydroquinolin-5-yl)oxy)benzamide], for which the Ki under setting [1] came to 0.155 nM.

`CN1CCC(Nc2ccc(S(=O)(=O)NC(=O)c3ccc(N4CCN(CC5=C(c6ccc(Cl)cc6)CC(C)(C)CC5)CC4)cc3Oc3ccc(N)c(Cl)c3)cc2[N+](=O)[O-])CC1` [Example 40, 2-(4-amino-3-chlorophenoxy)-4-(4-((2-(4-chlorophenyl)-4,4-dimethylcyclohex-1-en-1-yl)methyl)piperazin-1-yl)-N-((4-((1-methylpiperidin-4-yl)amino)-3-nitrophenyl)sulfonyl)benzamide] registered a Ki under setting [1] of 0.019 nM.

`CC1(C)CCC(CN2CCN(c3ccc(C(=O)NS(=O)(=O)c4ccc(NC5CCN(C6CCCC6)CC5)c([N+](=O)[O-])c4)c(Oc4ccccc4Cl)c3)CC2)=C(c2ccc(Cl)cc2)C1` [Example 117, 2-(2-chlorophenoxy)-4-(4-{[2-(4-chlorophenyl)-4,4-dimethylcyclohex-1-en-1-yl]methyl}piperazin-1-yl)-N-({4-[(1-cyclopentylpiperidin-4-yl)amino]-3-nitrophenyl}sulfonyl)benzamide] showed a Ki under setting [1] of 0.072 nM.

Compound `CC(C)(C)OC(=O)Nc1ccc(Oc2cc(N3CCN(Cc4ccccc4-c4ccc(Cl)cc4)CC3)ccc2C(=O)NS(=O)(=O)c2ccc(NCC3CCOCC3)c([N+](=O)[O-])c2)cc1` [Example 83, tert-butyl 4-(5-(4-((4′-chloro-1,1′-biphenyl-2-yl)methyl)piperazin-1-yl)-2-((((3-nitro-4-((tetrahydro-2H-pyran-4-ylmethyl)amino)phenyl)sulfonyl)amino)carbonyl)phenoxy)phenylcarbamate] had a Ki under setting [1] greater than 1200 nM.

Consider `CN1CCC(Nc2ccc(S(=O)(=O)NC(=O)c3ccc(N4CCN(CC5=C(c6ccc(Cl)cc6)CC(C)(C)CC5)CC4)cc3Oc3cccc(C(F)(F)F)c3Cl)cc2[N+](=O)[O-])CC1` [Example 64, 4-(4-((2-(4-chlorophenyl)-4,4-dimethylcyclohex-1-en-1-yl)methyl)piperazin-1-yl)-2-(2-chloro-3-(trifluoromethyl)phenoxy)-N-((4-((1-methylpiperidin-4-yl)amino)-3-nitrophenyl)sulfonyl)benzamide], for which the inhibitory constant (Ki) under setting [1] is 0.458 nM.

`CC1(C)CCC(CN2CCN(c3ccc(C(=O)NS(=O)(=O)c4ccc(NCCN5CCOCC5)c([N+](=O)[O-])c4)c(Oc4cccc(F)c4F)c3)CC2)=C(c2ccc(Cl)cc2)C1` [Example 135, 4-(4-{[2-(4-chlorophenyl)-4,4-dimethylcyclohex-1-en-1-yl]methyl}piperazin-1-yl)-2-(2,3-difluorophenoxy)-N-({4-[(2-morpholin-4-ylethyl)amino]-3-nitrophenyl}sulfonyl)benzamide] gave a Ki under setting [1] of 0.068 nM.

Compound `CN1CCN(Nc2ccc(S(=O)(=O)NC(=O)c3ccc(N4CCN(CC5=C(c6ccc(Cl)cc6)CC(C)(C)CC5)CC4)cc3Oc3cccc4c3CC(=O)N4)cc2[N+](=O)[O-])CC1` [Example 287, 4-(4-{[2-(4-chlorophenyl)-4,4-dimethylcyclohex-1-en-1-yl]methyl}piperazin-1-yl)-N-({4-[(4-methylpiperazin-1-yl)amino]-3-nitrophenyl}sulfonyl)-2-[(2-oxo-2,3-dihydro-1H-indol-4-yl)oxy]benzamide] came in with a Ki under setting [1] of 0.131 nM.

Under setting [1], `Cc1c[nH]c2cccc(Oc3cc(N4CCN(CC5=C(c6ccc(Cl)cc6)CC(C)(C)CC5)CC4)ccc3C(=O)NS(=O)(=O)c3ccc(NCCCN4CCOCC4)c([N+](=O)[O-])c3)c12` [Example 63, 4-(4-((2-(4-chlorophenyl)-4,4-dimethylcyclohex-1-en-1-yl)methyl)piperazin-1-yl)-2-((3-methyl-1H-indol-4-yl)oxy)-N-((4-((3-morpholin-4-ylpropyl)amino)-3-nitrophenyl)sulfonyl)benzamide] displayed a Ki of 0.438 nM.

With `CC1(C)CCC(CN2CCN(c3ccc(C(=O)NS(=O)(=O)c4ccc(NC5CCOCC5)c([N+](=O)[O-])c4)c(Oc4cc5cc[nH]c5cc4F)c3)CC2)=C(c2ccc(Cl)cc2)C1` [Example 251, 4-(4-{[2-(4-chlorophenyl)-4,4-dimethylcyclohex-1-en-1-yl]methyl}piperazin-1-yl)-2-[(6-fluoro-1H-indol-5-yl)oxy]-N-{[3-nitro-4-(tetrahydro-2H-pyran-4-ylamino)phenyl]sulfonyl}benzamide], under setting [1], affinity was put at a Ki of 0.435 nM.

Under setting [1], `CC1(C)CCC(CN2CCN(c3ccc(C(=O)NS(=O)(=O)c4cnc(OC[C@@H]5CCN(CC(F)F)C5)c(Cl)c4)c(Oc4cnc(N)c(Cl)c4)c3)CC2)=C(c2ccc(Cl)cc2)C1` [Example 400, 2-[(6-amino-5-chloropyridin-3-yl)oxy]-N-[(5-chloro-6-{[(3R)-1-(2,2-difluoroethyl)pyrrolidin-3-yl]methoxy}pyridin-3-yl)sulfonyl]-4-(4-{[2-(4-chlorophenyl)-4,4-dimethylcyclohex-1-en-1-yl]methyl}piperazin-1-yl)benzamide] gave a Ki of 0.082 nM.

`CN(C)CCCNc1ccc(S(=O)(=O)NC(=O)c2ccc(N3CCN(Cc4ccccc4-c4ccc(Cl)cc4)CC3)cc2Oc2cccc(Cl)c2)cc1[N+](=O)[O-]` [Example 14, 4-(4-((4′-chloro-1,1′-biphenyl-2-yl)methyl)piperazin-1-yl)-2-(3-chlorophenoxy)-N-((4-((3-(dimethylamino)propyl)amino)-3-nitrophenyl)sulfonyl)benzamide] showed a Ki under setting [1] of 0.079 nM.

As to `CC1(C)CCC(CN2CCN(c3ccc(C(=O)NS(=O)(=O)c4ccc(OCC5(F)CCOCC5)c([N+](=O)[O-])c4)c(Oc4cnc(N)c(Cl)c4)c3)CC2)=C(c2ccc(Cl)cc2)C1` [Example 330, 2-[(6-amino-5-chloropyridin-3-yl)oxy]-4-(4-{[2-(4-chlorophenyl)-4,4-dimethylcyclohex-1-en-1-yl]methyl}piperazin-1-yl)-N-({4-[(4-fluorotetrahydro-2H-pyran-4-yl)methoxy]-3-nitrophenyl}sulfonyl)benzamide], the Ki under setting [1] was less than 0.01 nM.

Compound `CO[C@H]1CC[C@H](CNc2ccc(S(=O)(=O)NC(=O)c3ccc(N4CCN(CC5=C(c6ccc(Cl)cc6)CC(C)(C)CC5)CC4)cc3Oc3cnc(N)c(Br)c3)cc2[N+](=O)[O-])CC1` [Example 367, Trans-2-[(6-amino-5-bromopyridin-3-yl)oxy]-4-(4-{[2-(4-chlorophenyl)-4,4-dimethylcyclohex-1-en-1-yl]methyl}piperazin-1-yl)-N-[(4-{[(4-methoxycyclohexyl)methyl]amino}-3-nitrophenyl)sulfonyl]benzamide] displayed a Ki of 0.012 nM.

As for `CC1(C)CCC(CN2CCN(c3ccc(C(=O)NS(=O)(=O)c4ccc(NC5CCN(C6CCOCC6)CC5)c([N+](=O)[O-])c4)c(Oc4ccc5nc(N)sc5c4)c3)CC2)=C(c2ccc(Cl)cc2)C1` [Example 232, 2-[(2-amino-1,3-benzothiazol-6-yl)oxy]-4-(4-{[2-(4-chlorophenyl)-4,4-dimethylcyclohex-1-en-1-yl]methyl}piperazin-1-yl)-N-({3-nitro-4-[(1-tetrahydro-2H-pyran-4-ylpiperidin-4-yl)amino]phenyl}sulfonyl)benzamide], the inhibitory constant (Ki) under setting [1] was 1.05 nM.

In turn, `CN(C)CCCNc1ccc(S(=O)(=O)NC(=O)c2ccc(N3CCN(CC4=C(c5ccc(Cl)cc5)CC(C)(C)CC4)CC3)cc2Oc2ccccc2F)cc1[N+](=O)[O-]` [Example 137, 4-(4-{[2-(4-chlorophenyl)-4,4-dimethylcyclohex-1-en-1-yl]methyl}piperazin-1-yl)-N-[(4-{[3-(dimethylamino)propyl]amino}-3-nitrophenyl)sulfonyl]-2-(2-fluorophenoxy)benzamide] yielded an inhibition constant Ki under setting [1] of 0.021 nM.

Turning to `COc1cccc(Oc2cc(N3CCN(Cc4ccccc4-c4ccc(Cl)cc4)CC3)ccc2C(=O)NS(=O)(=O)c2ccc(NCC3CCOCC3)c([N+](=O)[O-])c2)c1` [Example 20, 4-(4-((4′-chloro-1,1′-biphenyl-2-yl)methyl)piperazin-1-yl)-2-(3-methoxyphenoxy)-N-((3-nitro-4-((tetrahydro-2H-pyran-4-ylmethyl)amino)phenyl)sulfonyl)benzamide], the Ki under setting [1] was found to be 3.96 nM.

Compound `CN1CCC(Nc2ccc(S(=O)(=O)NC(=O)c3ccc(N4CCN(CC5=C(c6ccc(Cl)cc6)CC(C)(C)CC5)CC4)cc3Oc3cc(F)c4[nH]ccc4c3)cc2[N+](=O)[O-])CC1` [Example 50, 4-(4-((2-(4-chlorophenyl)-4,4-dimethylcyclohex-1-en-1-yl)methyl)piperazin-1-yl)-2-((7-fluoro-1H-indol-5-yl)oxy)-N-((4-((1-methylpiperidin-4-yl)amino)-3-nitrophenyl)sulfonyl)benzamide] returned a Ki under setting [1] of 0.062 nM.

`CC1(C)CCC(CN2CCN(c3ccc(C(=O)NS(=O)(=O)c4ccc(OCC#CCN5CCOCC5)c([N+](=O)[O-])c4)c(Oc4cc5cc[nH]c5cc4F)c3)CC2)=C(c2ccc(Cl)cc2)C1` [Example 317, 4-(4-{[2-(4-chlorophenyl)-4,4-dimethylcyclohex-1-en-1-yl]methyl}piperazin-1-yl)-2-[(6-fluoro-1H-indol-5-yl)oxy]-N-({4-[(4-morpholin-4-ylbut-2-ynyl)oxy]-3-nitrophenyl}sulfonyl)benzamide] displayed a Ki under setting [1] of 0.205 nM.

Compound `CC1(C)CCC(CN2CCN(c3ccc(C(=O)NS(=O)(=O)c4ccc(NC5CCN(C6CCOCC6)CC5)c([N+](=O)[O-])c4)c(Oc4cc(F)cc5[nH]ccc45)c3)CC2)=C(c2ccc(Cl)cc2)C1` [Example 210, 4-(4-{[2-(4-chlorophenyl)-4,4-dimethylcyclohex-1-en-1-yl]methyl}piperazin-1-yl)-2-[(6-fluoro-1H-indol-4-yl)oxy]-N-({3-nitro-4-[(1-tetrahydro-2H-pyran-4-ylpiperidin-4-yl)amino]phenyl}sulfonyl)benzamide] came in with an inhibitory constant (Ki) under setting [1] of 0.02 nM.

The term Ki denotes a measure of affinity in units of concentration, obtained from inhibition or displacement. Low readings indicate a stronger hold on the target, high ones a looser hold on the target.
